Data reported in US8324390B2, “Tetrazole-substituted anthranilamides as pesticides” (Bayer CropScience AG, priority 2008, dated 2012).
Where two headings read alike, the source gives them in different places.

Columns and labels:
[1] = log P determination by HPLC (EEC Directive 79/831 Annex V.A8); type: physicochemical
Description: The measurements were carried out using an Agilent 1100 LC system with a 50*4.6 Zorbax Eclipse C18 1.8 μm column (oven temperature 55° C., flow rate 2.0 ml/min).
The following mobile phases were used:
Mobile phase A: acetonitrile+1000 μl of formic acid/l
Mobile phase B: Millipore water+900 μl of formic acid/l

[2] = system: caterpillars of the armyworm (Spodoptera frugiperda); assay: Spodoptera frugiperda test (SPODFR spray treatment); type: in vivo; settings: 7 days
Text: Solvent: 78.0 parts by weight of acetone

[3] = reversed-phase HPLC, Zorbax Eclipse C18 column, determined by HPLC according to EEC Directive 79/831 Annex V.A8, read-out: log P

| Compound | chromatographic logP [1, 3] | chromatographic logP ([1]; log P) | also measured |
| --- | --- | --- | --- |
| Cc1cc(Cl)cc(C(N)=O)c1NC(=O)c1cc(Cn2nnc(C(F)(F)C(F)(F)F)n2)nn1-c1ncccc1Br [Example 418] | 3.13 |  |  |
| Cc1cc(Cl)cc(C(=O)NC(C)C)c1NC(=O)c1cc(Cn2nnc(C(F)(F)C(F)(F)F)n2)nn1-c1ncccc1Cl [drawing 599] |  |  | Kill in %/7 days ([2]; 0.8 g/ha): 100% |
| CSC[C@H](C)NC(=O)c1cc(C#N)cc(C)c1NC(=O)c1cc(Cn2nnnc2C(F)(F)F)nn1-c1ncccc1Cl [Example 193] |  | 2.92 |  |
| Cc1cc(C#N)cc(C(=O)NCC#N)c1NC(=O)c1cc(Cn2nnc(C(F)(F)C(F)(F)F)n2)nn1-c1ncccc1Br [Example 416] | 2.8 |  |  |
| CNC(=O)c1cc(Cl)cc(C)c1NC(=O)c1cc(Cn2nnnc2C(F)(F)F)nn1-c1ncccc1Cl [drawing 601] |  |  | Kill in %/7 days ([2]; 4 g/ha): 100% |
| Cc1cc(C#N)cc(C(=O)NCCC(F)(F)F)c1NC(=O)c1cc(Cn2nnc(C(F)(C(F)(F)F)C(F)(F)F)n2)nn1-c1ncccc1Cl [Example 414] | 3.92 |  |  |
| Cc1cc(C#N)cc(C(=O)NC(C)C2CCC2)c1NC(=O)c1cc(Cn2nnc(C(F)(F)F)n2)nn1-c1ncccc1Cl (stereo not shown) [Example 90] |  | 3.63 |  |
| CC(NC(=O)c1cc(Cl)cc(Cl)c1NC(=O)c1cc(Cn2nnc(C(F)F)n2)nn1-c1ncccc1Cl)C1CC1 (stereo not shown) [Example 283] |  | 3.23 |  |
| COCCNC(=O)c1cc(C#N)cc(C)c1NC(=O)c1cc(Cn2nnnc2C(F)(F)F)nn1-c1ncccc1Cl [Example 209] |  | 2.4 |  |
| Cc1cc(Cl)cc(C(=O)NC2CC2)c1NC(=O)c1cc(Cn2nnc(C(F)(F)C(F)(F)F)n2)nn1-c1ncccc1Br [Example 420] | 3.62 |  |  |
| CCNC(=O)c1cc(C#N)cc(C)c1NC(=O)c1cc(C(C)n2nnc(C(F)(F)F)n2)nn1-c1ncccc1Cl (stereo not shown) [Example 429] |  | 3.11 |  |
| CCNC(=O)c1cc(I)cc(C)c1NC(=O)c1cc(Cn2nnc(C(F)F)n2)nn1-c1ncccc1Cl [Example 276] |  | 2.98 |  |
| Cc1cc(C#N)cc(C(=O)NCCN)c1NC(=O)c1cc(Cn2nnc(C(F)(F)F)n2)nn1-c1ncccc1Cl [Example 123] |  | 1.63 |  |
| Cc1cc(C#N)cc(C(=O)NCCCCCCO)c1NC(=O)c1cc(Cn2nnc(C(F)(F)F)n2)nn1-c1ncccc1Cl [Example 94] |  | 2.71 |  |
| COCC(C)(C)NC(=O)c1cc(C#N)cc(C)c1NC(=O)c1cc(Cn2nnc(C(F)(F)F)n2)nn1-c1ncccc1Cl [Example 356] |  | 3.29 |  |

The next lines start with results.

| chromatographic logP [1, 3] | Compound | chromatographic logP ([1]; log P) | also measured |
| --- | --- | --- | --- |
| 4.23 | Cc1cc(Cl)cc(C(=O)NC(C)(C)C)c1NC(=O)c1cc(Cn2nnc(C(F)(F)C(F)(F)F)n2)nn1-c1ncccc1Br [Example 419] |  |  |
| 3.87 | Cc1cc(Cl)cc(C(=O)NC(C)C)c1NC(=O)c1cc(Cn2nnc(C(F)(F)C(F)(F)F)n2)nn1-c1ncccc1Br [Example 417] |  |  |
| 3.36 | CNC(=O)c1cc(Cl)cc(C)c1NC(=O)c1cc(Cn2nnc(C(F)(F)C(F)(F)F)n2)nn1-c1ncccc1Br [Example 415] |  |  |
| 4 | Cc1cc(Br)cc(C(=O)NC(C)(C)C)c1NC(=O)c1cc(Cn2nnc(C(F)(F)F)n2)nn1-c1ncccc1Br [Example 409] |  |  |
| 2.82 | Cc1cc(C#N)cc(C(N)=O)c1NC(=O)c1cc(Cn2nnc(C(F)(F)F)n2)nn1-c1ccccc1Cl [Example 439] |  |  |
| 3.31 | Cc1cc(Cl)cc(C(=O)NCC#N)c1NC(=O)c1cc(Cn2nnc(C(F)(F)C(F)(F)F)n2)nn1-c1ncccc1Br [Example 421] |  |  |
| 2.9 | Cc1cc(Br)cc(C(=O)NCC#N)c1NC(=O)c1cc(Cn2nnnc2C(F)(F)F)nn1-c1ncccc1C(F)(F)F [Example 451] |  |  |
| 2.72 | Cc1cc(Br)cc(C(N)=O)c1NC(=O)c1cc(Cn2nnnc2C(F)(F)F)nn1-c1ncccc1C(F)(F)F [Example 454] |  |  |
| 3.03 | CNC(=O)c1cc(C#N)cc(C)c1NC(=O)c1cc(Cn2nnc(C(F)(F)C(F)(F)F)n2)nn1-c1ncccc1Br [Example 422] |  |  |
| 2.43 | CNC(=O)c1cc(S(C)(=O)=O)cc(C)c1NC(=O)c1cc(Cn2nnnc2C(F)(F)F)nn1-c1ccccc1Cl [Example 524] |  |  |
